Measured values published in US12077503B2, “Substituted cyclic amides and their use as herbicides” (FMC CORPORATION, priority 2015, dated 2024).

How the values were obtained:
Format in all cases: in vivo
[1] = test system: barnyardgrass (Echinochloa crus-galli); assay: Test G Post-Emergence Protocol; settings: Echinochloa crus-galli, post-emergence, 312 h; for pest or weed control at 15.625 g/ha: 15.625 g ai/ha, evaluated after 13 days (100=total damage to plant; 0=no damage to plant), read-out: Barnyardgrass damage rating; for pest or weed control at 62.5 g/ha: 62.5 g ai/ha, read-out: Barnyardgrass damage rating (100=total damage to plant; 0=no damage to plant); for pest or weed control at 62.5 g/ha / pest or weed control at 250 g/ha: evaluated after 13 days; for pest or weed control at 250 g/ha: 250 g ai/ha, read-out: damage to plant, Barnyardgrass (100=total damage to plant; 0=no damage to plant)
Procedure, shortened: (§1)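 Scores run 0 (no damage) to 100 (total damage) and were taken 13 days after spraying. Plants had been raised in pots for 8 days under glasshouse control (24/16 °C, 14 h photoperiod, 65% humidity) and then treated at 15.625, 62.5 or 250 g/ha.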

[2] = test system: redroot pigweed (Amaranthus retroflexus); assay: Test G Post-Emergence Protocol; settings: Amaranthus retroflexus, post-emergence, 312 h; for pest or weed control at 15.625 g/ha: 15.625 g ai/ha, evaluated after 13 days (100=total damage to plant; 0=no damage to plant), read-out: Pigweed, Redroot damage rating; for pest or weed control at 62.5 g/ha: 62.5 g ai/ha, read-out: Pigweed, Redroot damage rating (100=total damage to plant; 0=no damage to plant); for pest or weed control at 62.5 g/ha / pest or weed control at 250 g/ha: evaluated after 13 days; for pest or weed control at 250 g/ha: 250 g ai/ha, read-out: damage to plant, Pigweed, Redroot (100=total damage to plant; 0=no damage to plant)
Procedure, shortened: as §1

corn (Zea mays) [3] = assay: Test G Post-Emergence Protocol; settings: Zea mays, post-emergence, 312 h; for plant injury at 15.625 g/ha: 15.625 g ai/ha, evaluated after 13 days (100=total damage to plant; 0=no damage to plant), read-out: Corn damage rating; for plant injury at 62.5 g/ha: 62.5 g ai/ha, read-out: Corn damage rating (100=total damage to plant; 0=no damage to plant); for plant injury at 62.5 g/ha / plant injury at 250 g/ha: evaluated after 13 days; for plant injury at 250 g/ha: 250 g ai/ha, read-out: damage to plant, Corn (100=total damage to plant; 0=no damage to plant)
Procedure, shortened: as §1

[4] = test system: velvetleaf (Abutilon theophrasti); assay: Test G Post-Emergence Protocol; settings: Abutilon theophrasti, post-emergence, 312 h; for pest or weed control at 15.625 g/ha: 15.625 g ai/ha, evaluated after 13 days (100=total damage to plant; 0=no damage to plant), read-out: Velvetleaf damage rating; for pest or weed control at 62.5 g/ha: 62.5 g ai/ha, read-out: Velvetleaf damage rating (100=total damage to plant; 0=no damage to plant); for pest or weed control at 62.5 g/ha / pest or weed control at 250 g/ha: evaluated after 13 days; for pest or weed control at 250 g/ha: 250 g ai/ha, read-out: damage to plant, Velvetleaf (100=total damage to plant; 0=no damage to plant)
Procedure, shortened: as §1

[5] = test system: ivy-leaved morning glory (Ipomoea hederacea); assay: Test G Post-Emergence Protocol; settings: Ipomoea, post-emergence, 312 h; for pest or weed control at 15.625 g/ha: 15.625 g ai/ha, evaluated after 13 days (100=total damage to plant; 0=no damage to plant), read-out: Morningglory, Ivy-leaved damage rating; for pest or weed control at 62.5 g/ha: 62.5 g ai/ha, read-out: Morningglory, Ivy-leaved damage rating (100=total damage to plant; 0=no damage to plant); for pest or weed control at 62.5 g/ha / pest or weed control at 250 g/ha: evaluated after 13 days; for pest or weed control at 250 g/ha: 250 g ai/ha, read-out: damage to plant, Morningglory, Ivy-leaved (100=total damage to plant; 0=no damage to plant)
Procedure, shortened: as §1

[6] = test system: giant foxtail (Setaria faberi); assay: Test G Post-Emergence Protocol; settings: Setaria faberi, post-emergence, 312 h; for pest or weed control at 15.625 g/ha: 15.625 g ai/ha, evaluated after 13 days (100=total damage to plant; 0=no damage to plant), read-out: Foxtail, Giant damage rating; for pest or weed control at 62.5 g/ha: 62.5 g ai/ha, read-out: Foxtail, Giant damage rating (100=total damage to plant; 0=no damage to plant); for pest or weed control at 62.5 g/ha / pest or weed control at 250 g/ha: evaluated after 13 days; for pest or weed control at 250 g/ha: 250 g ai/ha, read-out: damage to plant, Foxtail, Giant (100=total damage to plant; 0=no damage to plant)
Procedure, shortened: as §1

[7] = test system: barnyardgrass (Echinochloa crus-galli); assay: Test G Pre-Emergence Protocol; settings: Echinochloa crus-galli, pre-emergence, 312 h, evaluated after 13 days; for pest or weed control at 15.625 g/ha: 15.625 g ai/ha, read-out: Barnyard grass damage rating (100=total damage to plant; 0=no damage to plant); for pest or weed control at 62.5 g/ha: 62.5 g ai/ha, 100=total damage to plant, 0=no damage to plant, read-out: plant damage rating, Barnyardgrass; for pest or weed control at 250 g/ha: 250 g ai/ha, read-out: Barnyardgrass damage rating (100=total damage to plant; 0=no damage to plant)
Procedure, shortened: (§2)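 Test compound in 0.5% Tween 20 acetone/water (50:50) was applied at three rates (15.625, 62.5, 250 g/ha) to soil sown one day earlier. After 13 days plants were scored for injury, where 0 means unaffected and 100 means completely damaged.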

[8] = test system: redroot pigweed (Amaranthus retroflexus); assay: Test G Pre-Emergence Protocol; settings: Amaranthus retroflexus, pre-emergence, 312 h, evaluated after 13 days; for pest or weed control at 62.5 g/ha: 62.5 g ai/ha, 100=total damage to plant, 0=no damage to plant, read-out: plant damage rating, Pigweed, Redroot; for pest or weed control at 250 g/ha: 250 g ai/ha
Procedure, shortened: as §2

corn (Zea mays) [9] = assay: Test G Pre-Emergence Protocol; settings: Zea mays, pre-emergence, 312 h, evaluated after 13 days; for plant injury at 15.625 g/ha: 15.625 g ai/ha; for plant injury at 15.625 g/ha / plant injury at 250 g/ha: read-out: Corn damage rating (100=total damage to plant; 0=no damage to plant); for plant injury at 62.5 g/ha: 62.5 g ai/ha, 100=total damage to plant, 0=no damage to plant, read-out: plant damage rating, Corn; for plant injury at 250 g/ha: 250 g ai/ha
Procedure, shortened: as §2

[10] = test system: velvetleaf (Abutilon theophrasti); assay: Test G Pre-Emergence Protocol; settings: Abutilon theophrasti, pre-emergence, 312 h, evaluated after 13 days; for pest or weed control at 62.5 g/ha: 62.5 g ai/ha, 100=total damage to plant, 0=no damage to plant, read-out: plant damage rating, Velvetleaf; for pest or weed control at 250 g/ha: 250 g ai/ha
Procedure, shortened: as §2

[11] = test system: ivy-leaved morning glory (Ipomoea hederacea); assay: Test G Pre-Emergence Protocol; settings: Ipomoea, pre-emergence, 312 h, evaluated after 13 days; for pest or weed control at 15.625 g/ha: 15.625 g ai/ha, read-out: Morning-glory, Ivy-leaved damage rating (100=total damage to plant; 0=no damage to plant); for pest or weed control at 62.5 g/ha: 62.5 g ai/ha, 100=total damage to plant, 0=no damage to plant, read-out: plant damage rating, Morningglory, Ivy-leaved; for pest or weed control at 250 g/ha: 250 g ai/ha, read-out: Morningglory, Ivy-leaved damage rating (100=total damage to plant; 0=no damage to plant)
Procedure, shortened: as §2

[12] = test system: giant foxtail (Setaria faberi); assay: Test G Pre-Emergence Protocol; settings: Setaria faberi, pre-emergence, 312 h, evaluated after 13 days; for pest or weed control at 15.625 g/ha: 15.625 g ai/ha; for pest or weed control at 15.625 g/ha / pest or weed control at 250 g/ha: read-out: Foxtail, Giant damage rating (100=total damage to plant; 0=no damage to plant); for pest or weed control at 62.5 g/ha: 62.5 g ai/ha, 100=total damage to plant, 0=no damage to plant, read-out: plant damage rating, Foxtail, Giant; for pest or weed control at 250 g/ha: 250 g ai/ha
Procedure, shortened: as §2

[13] = read-out: Pigweed, Redroot damage rating (100=total damage to plant; 0=no damage to plant)
[14] = read-out: Velvetleaf damage rating (100=total damage to plant; 0=no damage to plant)

Structure (SMILES)	pest or weed control at 15.625 g/ha [1] [%]	pest or weed control at 62.5 g/ha [1] [%]	pest or weed control at 250 g/ha [1] [%]	pest or weed control at 15.625 g/ha [2] [%]	pest or weed control at 62.5 g/ha [2] [%]	pest or weed control at 250 g/ha [2] [%]	plant injury at 15.625 g/ha (corn (Zea mays) [3]) [%]	plant injury at 62.5 g/ha (corn (Zea mays) [3]) [%]	plant injury at 250 g/ha (corn (Zea mays) [3]) [%]	pest or weed control at 15.625 g/ha [4] [%]	pest or weed control at 62.5 g/ha [4] [%]	pest or weed control at 250 g/ha [4] [%]	pest or weed control at 15.625 g/ha [5] [%]	pest or weed control at 62.5 g/ha [5] [%]	pest or weed control at 250 g/ha [5] [%]	pest or weed control at 15.625 g/ha [6] [%]	pest or weed control at 62.5 g/ha [6] [%]	pest or weed control at 250 g/ha [6] [%]	pest or weed control at 15.625 g/ha [7] [%]	pest or weed control at 62.5 g/ha [7] [%]	also measured
COc1ccc(OC)c([C@H]2CN(C)C(=O)[C@@H]2C(=O)Nc2ccccc2F)c1 (racemic) [Compound 1453]	0	10	10	0	0	0	10	10	10	0	0	0	0	0	10	10	50	50	20	40	pest or weed control at 250 g/ha [7]: 90%; pest or weed control at 15.625 g/ha ([8]; 15.625 g ai/ha, read-out: Pigweed, Redroot damage rating (100=total damage to plant; 0=no damage to plant)): 0%; pest or weed control at 62.5 g/ha [8]: 0%; pest or weed control at 250 g/ha [8, 13]: 0%; plant injury at 15.625 g/ha (corn (Zea mays) [9]): 0%; plant injury at 62.5 g/ha (corn (Zea mays) [9]): 0%; plant injury at 250 g/ha (corn (Zea mays) [9]): 0%; pest or weed control at 62.5 g/ha [10]: 0%; pest or weed control at 250 g/ha [10, 14]: 20%; pest or weed control at 15.625 g/ha [11]: 0%; pest or weed control at 62.5 g/ha [11]: 0%; pest or weed control at 250 g/ha [11]: 0%; pest or weed control at 15.625 g/ha [12]: 40%; pest or weed control at 62.5 g/ha [12]: 60%; pest or weed control at 250 g/ha [12]: 90%
COc1ccc([C@H]2CN(C)C(=O)[C@@H]2C(=O)Nc2ccccc2F)c(C)c1 (racemic) [Compound 1455]	0	0	20	0	0	40	10	10	20	0	0	10	0	0	20	10	10	50	30	70	pest or weed control at 250 g/ha [7]: 90%; pest or weed control at 62.5 g/ha [8]: 0%; pest or weed control at 250 g/ha [8, 13]: 0%; plant injury at 15.625 g/ha (corn (Zea mays) [9]): 0%; plant injury at 62.5 g/ha (corn (Zea mays) [9]): 0%; plant injury at 250 g/ha (corn (Zea mays) [9]): 10%; pest or weed control at 15.625 g/ha ([10]; 15.625 g ai/ha, read-out: Velvetleaf damage rating (100=total damage to plant; 0=no damage to plant)): 0%; pest or weed control at 62.5 g/ha [10]: 30%; pest or weed control at 250 g/ha [10, 14]: 0%; pest or weed control at 15.625 g/ha [11]: 0%; pest or weed control at 62.5 g/ha [11]: 0%; pest or weed control at 250 g/ha [11]: 20%; pest or weed control at 15.625 g/ha [12]: 30%; pest or weed control at 62.5 g/ha [12]: 70%; pest or weed control at 250 g/ha [12]: 90%
